One block for each molecule: values may come before it. Starred links: 1 amine or outer side, 2 acyl side, 3 side chain; linkers in the order of their positions; H or OH if unused. Positions of bridges follow the written chain, without caps; N, C: chain ends. Non-standard residues stand in square brackets, D forms with d. Chains are numbered I, II in the order given. No end group written: not given here. *: point of attachment. TBMT = 2,4,6-tris(bromomethyl)-s-triazine, molecular scaffold, C(c1nc(C[*:2])nc(C[*:3])n1)[*:1]; TATA = O=C(CC[*:1])N1CN(C(=O)CC[*:2])CN(C(=O)CC[*:3])C1; Hyp = O=C(O)[C@@H]1C[C@@H](O)CN1; hArg = N=C(N)NCCCC[C@H](N)C(=O)O; Cba = N[C@@H](CC1CCC1)C(=O)O; Pent4ynoyl = C#CCCC(=O)*
Key:
NK cells = test: Degranulation assay (CD107a surface expression on NK cells co-cultured with A549); format: cell-based, human; settings: for upregulation of CD107a on NK cell surface: NK cells with A549 cells, post-treatment, FIG. 1
Protocol: Tumor cells can be recognized and killed by CD8+T-cytotoxic and NK cells through the immune secretion of lytic granules that kill target cells. This process involves the fusion of the granule membrane with the cytoplasmic membrane of the immune effector cell, resulting in surface exposure of CD107a (LAMP1). Membrane expression of CD107a constitutes a marker of immune cell activation and cytotoxic degranulation. EphA2/NKp46 or EphA2/CD16a heterotandem bicyclic peptide complexes were evaluated for activation of NK cells using a degranulation assay.
On the day of the experiment, medium was prepared by supplementing RPMI-1640 (Gibco™ 11875-093; with L-glutamine) with 10% heat-inactivated fetal bovine serum (FBS; Corning® 35-011-CV), 10 mM HEPES (Gibco™ 15-630-080), and 1% Penicillin Streptomycin (Corning™ 30-002-CI), herein referred to as working medium. Previously isolated human peripheral blood mononuclear cells (PBMCs), from whole blood, were quick thawed in a water bath and washed once at 500 rpm for 5 minutes in 10 mL of prewarmed working medium. PBMC pellet was then resuspended to concentration of 5×10^6 cells/mL in working medium and rested overnight (12-18 hours) horizontally in a tissue-culture coated flask (T-183; CELLTREAT Scientific 229351). Moreover, Ephrin type-A receptor (EphA2) expressing human lung carcinoma cell line A549 (ATCCR CCL-185; cells were grown and maintained according to manufacturer's recommendation) were detached from the culture vessel using Trypsin/EDTA and washed once at 500 rpm for 5 minutes in 15 mL of prewarmed working medium. Cell pellet was then resuspended in working medium at a concentration of 1×10^5 cells/mL. Subsequently, 100 μL of cell suspension was plated in a flat-bottom tissue-culture coated 96-well plate (Greiner CellStar® 655180) and rested overnight (12-18 hours).
Post-overnight incubation, PBMCs were removed from the flask and washed once at 500 rpm for 5 minutes in 10 mL of prewarmed working medium. […]

HT1080-luc cells = test: NK cytotoxicity assay (NK:HT1080-luc co-culture, luciferase readout); format: cell-based, human; settings: in comparison to NK:HT1080-luc co-culture without heterotandem complex (NK-TICA)
Protocol: (§1) Heterotandem bicyclic peptide complexes were evaluated for NK functional readouts (cytotoxicity and cytokine secretion) in NK-tumor cell line co-cultures.
(§2) NK cells were isolated using a negative isolation kit (STEMCELL™ Technologies 17955) from the total PBMC population purified from whole blood. NK cell pellet was then resuspended in DMEM medium (Corning™ 10-013-CV) with 10% heat-inactivated fetal bovine serum (FBS; Corning® 35-011-CV), 10 mM HEPES (Gibco™ 15-630-080), and 1% Penicillin Streptomycin (Corning™ 30-002-CI), and 50 IU/mL human IL-2 (Miltenyi Biotec® 130-097-748), at a concentration of 4×10^5 cells/mL. For the NK cell cytotoxicity assays, 50 μL (2×10^4) of cell suspension was plated in the 96-well plate (Grenier® Bio One™ 655090) containing 50 μl (4×10^3) HT1080-luc cells (ATCC® CCL-121-luc2) in DMEM (Gibco™ 11875-093; with L-glutamine) with 10% heat-inactivated fetal bovine serum (FBS; Corning® 35-011-CV), 10 mM HEPES (Gibco™ 15-630-080), and 1% Penicillin Streptomycin (Corning™ 30-002-CI). […] The plates were then incubated for 24 hours at 37° C., 5% CO2. Post-incubation, plates was centrifuged at 250×g for 5 minutes and 100 μl supernatant discarded. Samples were then incubated 10 minutes with 50 μl Bright-Glo™ Luciferase Assay system (Promega™ E2620). Luminescence upon excitation at 570 nm was read using a CLARIOstar® plate-reader with MARS Data Analysis Software™. Data was fit to a four-parameter non-linear regression in GraphPad Prism™ 8.0.2 to generate an EC50 value.

[1] = as above; format: cell-based, human; settings: NK:HT1080-luc co-culture, 24 hours, four-parameter logistic regression; FIGS. 2-4, 6-8, 10; read-out: EC50 NK cytotoxicity (tumor cell killing)
Protocol: as §1, §2

[2] = target: FcγRIIIA (also known as CD16a) (human) (UniProt P08637); test: cell-based or functional assay
Sequence of FcγRIIIA (also known as CD16a) (human) (P08637 17-254): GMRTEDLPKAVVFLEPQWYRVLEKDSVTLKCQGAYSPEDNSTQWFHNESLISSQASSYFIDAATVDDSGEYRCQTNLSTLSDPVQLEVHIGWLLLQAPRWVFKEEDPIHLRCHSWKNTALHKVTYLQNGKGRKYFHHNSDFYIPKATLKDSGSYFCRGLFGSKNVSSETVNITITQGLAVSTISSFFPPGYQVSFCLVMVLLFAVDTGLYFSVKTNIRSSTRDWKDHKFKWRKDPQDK

NKp46 (human) = NKp46 (human) (UniProt O76036); test: cell-based or functional assay
Sequence of NKp46 (human) (O76036 22-304): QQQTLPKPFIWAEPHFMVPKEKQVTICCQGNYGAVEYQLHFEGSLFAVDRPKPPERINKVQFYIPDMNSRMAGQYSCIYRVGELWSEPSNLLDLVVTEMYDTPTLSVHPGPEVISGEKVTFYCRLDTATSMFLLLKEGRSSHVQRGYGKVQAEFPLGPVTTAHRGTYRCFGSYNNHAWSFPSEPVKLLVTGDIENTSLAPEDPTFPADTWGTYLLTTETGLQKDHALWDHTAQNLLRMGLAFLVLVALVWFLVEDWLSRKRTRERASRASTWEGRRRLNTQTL

[3] = target: EPH receptor A2 (ephrin type-A receptor 2) (human) (UniProt P29317); test: cell-based or functional assay
Sequence of EPH receptor A2 (ephrin type-A receptor 2) (human) (P29317 24-976): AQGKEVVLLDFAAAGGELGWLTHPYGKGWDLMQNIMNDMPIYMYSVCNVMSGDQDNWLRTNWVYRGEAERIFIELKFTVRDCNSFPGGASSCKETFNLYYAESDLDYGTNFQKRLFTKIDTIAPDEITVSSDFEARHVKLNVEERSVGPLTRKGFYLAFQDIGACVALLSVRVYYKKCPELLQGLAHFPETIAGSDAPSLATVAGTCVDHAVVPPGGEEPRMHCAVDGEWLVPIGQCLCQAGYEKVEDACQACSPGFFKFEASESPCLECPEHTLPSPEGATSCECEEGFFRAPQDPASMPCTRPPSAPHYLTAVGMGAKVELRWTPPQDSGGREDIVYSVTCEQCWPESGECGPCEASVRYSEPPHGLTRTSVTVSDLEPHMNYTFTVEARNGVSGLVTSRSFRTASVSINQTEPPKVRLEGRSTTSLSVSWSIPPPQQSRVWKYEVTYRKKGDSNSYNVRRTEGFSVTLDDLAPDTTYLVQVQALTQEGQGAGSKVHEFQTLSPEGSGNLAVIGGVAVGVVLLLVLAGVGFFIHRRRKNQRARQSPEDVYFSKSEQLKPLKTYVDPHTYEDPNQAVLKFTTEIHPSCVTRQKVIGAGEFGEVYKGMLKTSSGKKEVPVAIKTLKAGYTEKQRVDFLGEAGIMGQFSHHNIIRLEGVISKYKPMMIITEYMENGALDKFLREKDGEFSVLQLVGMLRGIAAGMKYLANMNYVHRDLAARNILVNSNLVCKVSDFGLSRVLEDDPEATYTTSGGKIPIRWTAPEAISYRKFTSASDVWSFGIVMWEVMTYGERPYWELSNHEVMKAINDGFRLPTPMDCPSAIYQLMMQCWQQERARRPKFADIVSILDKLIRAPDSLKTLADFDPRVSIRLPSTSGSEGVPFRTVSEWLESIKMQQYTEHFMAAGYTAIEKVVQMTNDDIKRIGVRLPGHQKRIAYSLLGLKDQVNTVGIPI

Molecule: CC(C)C[C@@H]1NC(=O)[C@H](Cc2ccc(O)cc2)NC(=O)[C@H](CC(=O)O)NC(=O)[C@@H]2CCCN2C(=O)[C@H](CC(C)C)NC(=O)[C@H](Cc2ccc(O)cc2)NC(=O)[C@@H](NC(=O)[C@H](C)N)CSCCC(=O)N2CN3CN(C2)C(=O)CCSC[C@@H](C(=O)N[C@@H](C)C(=O)N[C@H](CCCCNC(=O)CCc2cn(CCOCCOCCOCCN(CCOCCOCCOCCC(=O)N[C@@H](C)C(=O)N[C@@H](CCCCNC(=N)N)C(=O)N[C@@H](CC(=O)O)C(=O)N[C@H]4CSCCC(=O)N5CN6CN(C5)C(=O)CCSC[C@H](NC(=O)[C@H](CC(C)C)NC(=O)[C@@H]5CCCN5C(=O)[C@H](CC(N)=O)NC(=O)[C@H](C(C)C)NC(=O)[C@H](CC(C)C)NC(=O)[C@@H]5C[C@@H](O)CN5C4=O)C(=O)N[C@@H](CC(C)C)C(=O)N[C@@H](Cc4c[nH]cn4)C(=O)N4CCC[C@H]4C(=O)N[C@H](CC(=O)O)C(=O)N[C@@H](Cc4c[nH]c5ccccc45)C(=O)N[C@@H](CCCCNC(=N)N)C(=O)N[C@H](C(N)=O)CSCCC6=O)CCOCCOCCOCCn4cc(CCC(=O)NCCCC[C@@H](NC(=O)[C@H](C)NC(=O)[C@@H]5CSCCC(=O)N6CN7CN(C6)C(=O)CCSC[C@H](NC(=O)[C@H](CC(C)C)NC(=O)[C@H](Cc6ccc(O)cc6)NC(=O)[C@H](CC(=O)O)NC(=O)[C@@H]6CCCN6C(=O)[C@H](CC(C)C)NC(=O)[C@H](Cc6ccc(O)cc6)NC(=O)[C@@H](NC(=O)[C@H](C)N)CSCCC7=O)C(=O)NCC(=O)N[C@@H](CC(=O)O)C(=O)N[C@@H](CCC(=O)O)C(=O)N[C@@H](Cc6ccc(O)cc6)C(=O)N5)C(N)=O)nn4)nn2)C(N)=O)NC(=O)[C@H](Cc2ccc(O)cc2)NC(=O)[C@H](CCC(=O)O)NC(=O)[C@H](CC(=O)O)NC(=O)CNC(=O)[C@H](CSCCC3=O)NC1=O [BCY15664]
- upregulation of CD107a on NK cell surface (NK cells): dose-dependent upregulation of CD107a
- effect on tumor cell killing by NK cells, in words (HT1080-luc cells): dose-dependent NK cell response to kill
- EC50 [1]: 0.021 nM

Molecule: BCY15911: EphA2 specific peptide BCY9594 linked to two CD16a specific peptides (BCY13886) via N-(acid-PEG3)-N-bis(PEG3-azide) linker (peptide 1 A[hArg]DC[Hyp]LVNPLCLHP[dD]W[hArg]C; peptide 2 ACVGLEELGPCSDLCAK(Pent4ynoyl); linker I:4-I:11-I:18 via TATA; linker II:2-II:11-II:15 via TBMT; also: chain 1 N-terminus and chain 2 K(PYA) joined through N-(acid-PEG3)-N-bis(PEG3-azide) linker, two copies of chain 2)
- upregulation of CD107a on NK cell surface (NK cells): dose-dependent upregulation of CD107a
- EC50 (NK cells; NK cells with EphA2 expressing A549 cells, 4 hours, flow cytometry, read-out: EC50 Degranulation Geometric Mean CD107a): 99.8 nM

B1: heterotandem bicyclic peptide complex BCY20793 (peptide)
peptide 1: A[hArg]DC[Hyp]LVNPLCLHP[dD]W[hArg]C
peptide 2: Ac-CY[Cba]PDYLC[dA]DEYCK(Pent4ynoyl)
peptide 3: ACRWHFSEPCGAWCAK(Pent4ynoyl)
modifications: linker I:4-I:11-I:18, II:1-II:8-II:13 via TATA; linker III:2-III:10-III:14 via TBMT; also: three peptides joined on N-(PEG3-acid)-N-(PEG3-azide)-N-(PEG3-NH-AcAz) linker (triazole to PYA of chains 2 and 3)
- EC50, NK cytotoxicity assay (HT1080-luc luminescence) [2]: 0.0065 nM
- EC50, NK cytotoxicity assay (HT1080-luc luminescence) (NKp46 (human)): 0.0065 nM

- EC50 Degranulation Geometric Mean CD107a [2]: 99.8 nM
- EC50 Degranulation Geometric Mean CD107a [3]: 99.8 nM
B2: heterotandem bicyclic peptide complex BCY15911 (peptide)
peptide 1: A[hArg]DC[Hyp]LVNPLCLHP[dD]W[hArg]C
peptide 2: ACVGLEELGPCSDLCAK(Pent4ynoyl)
modifications: linker I:4-I:11-I:18 via TATA; linker II:2-II:11-II:15 via TBMT; also: EphA2:CD16a 1:2, two copies of chain 2 on the linker, X5, X17: HyP or HArg, linker at chain B 17 to a chain's N-terminus via N-(acid-PEG3)-N-bis(PEG3-azide) linker
